Laboratory results: patent US11331299B2, “Medicinal use of serrulatane diterpenes” (The University of Sydney, priority 2016, dated 2022)

Tests used:
[1] = system: 43 cancer cell lines and one normal cell line; experiment: In vitro cell viability assay (intracellular ATP, 72 hour); type: cell-based; conditions: 10 μM
CYP2C9 = target: T1, CYP2C9 (Homo sapiens, UniProt P11712); experiment: Cytochrome P450 Inhibition (CYP panel); type: in vitro ADME; conditions: human liver microsomes, probe diclofenac
T1 construct: Human liver microsomes; from tissue; host or cells: human liver microsomes
T1 sequence (P11712 whole entry): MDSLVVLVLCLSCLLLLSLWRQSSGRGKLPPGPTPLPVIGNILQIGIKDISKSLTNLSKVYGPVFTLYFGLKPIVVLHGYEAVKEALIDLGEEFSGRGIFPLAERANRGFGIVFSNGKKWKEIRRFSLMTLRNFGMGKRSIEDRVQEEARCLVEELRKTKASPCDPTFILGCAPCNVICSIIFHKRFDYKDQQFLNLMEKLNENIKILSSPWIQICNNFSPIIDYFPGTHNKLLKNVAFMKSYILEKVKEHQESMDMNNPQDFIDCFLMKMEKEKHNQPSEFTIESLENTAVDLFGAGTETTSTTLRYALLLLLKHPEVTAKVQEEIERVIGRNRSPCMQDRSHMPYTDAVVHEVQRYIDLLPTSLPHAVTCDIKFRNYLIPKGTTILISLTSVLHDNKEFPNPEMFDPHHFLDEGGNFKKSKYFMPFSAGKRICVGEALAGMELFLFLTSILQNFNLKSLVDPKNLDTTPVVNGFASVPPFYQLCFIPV

[2] = target: PKBbeta/AKT2(h) (substrate histone H3 full length) (Homo sapiens, UniProt P31751); experiment: Epigenetic enzyme assay, Kinases; type: biochemical; conditions: read-out: % Inhibition of Control Values
HDAC5 (h) = HDAC5 (h) (Homo sapiens, UniProt Q9UQL6); experiment: Epigenetic enzyme assay, Histone deacetylase (HDACs); type: biochemical; conditions: read-out: % Inhibition of Control Values
Chain of HDAC5 (h) (Q9UQL6 whole entry): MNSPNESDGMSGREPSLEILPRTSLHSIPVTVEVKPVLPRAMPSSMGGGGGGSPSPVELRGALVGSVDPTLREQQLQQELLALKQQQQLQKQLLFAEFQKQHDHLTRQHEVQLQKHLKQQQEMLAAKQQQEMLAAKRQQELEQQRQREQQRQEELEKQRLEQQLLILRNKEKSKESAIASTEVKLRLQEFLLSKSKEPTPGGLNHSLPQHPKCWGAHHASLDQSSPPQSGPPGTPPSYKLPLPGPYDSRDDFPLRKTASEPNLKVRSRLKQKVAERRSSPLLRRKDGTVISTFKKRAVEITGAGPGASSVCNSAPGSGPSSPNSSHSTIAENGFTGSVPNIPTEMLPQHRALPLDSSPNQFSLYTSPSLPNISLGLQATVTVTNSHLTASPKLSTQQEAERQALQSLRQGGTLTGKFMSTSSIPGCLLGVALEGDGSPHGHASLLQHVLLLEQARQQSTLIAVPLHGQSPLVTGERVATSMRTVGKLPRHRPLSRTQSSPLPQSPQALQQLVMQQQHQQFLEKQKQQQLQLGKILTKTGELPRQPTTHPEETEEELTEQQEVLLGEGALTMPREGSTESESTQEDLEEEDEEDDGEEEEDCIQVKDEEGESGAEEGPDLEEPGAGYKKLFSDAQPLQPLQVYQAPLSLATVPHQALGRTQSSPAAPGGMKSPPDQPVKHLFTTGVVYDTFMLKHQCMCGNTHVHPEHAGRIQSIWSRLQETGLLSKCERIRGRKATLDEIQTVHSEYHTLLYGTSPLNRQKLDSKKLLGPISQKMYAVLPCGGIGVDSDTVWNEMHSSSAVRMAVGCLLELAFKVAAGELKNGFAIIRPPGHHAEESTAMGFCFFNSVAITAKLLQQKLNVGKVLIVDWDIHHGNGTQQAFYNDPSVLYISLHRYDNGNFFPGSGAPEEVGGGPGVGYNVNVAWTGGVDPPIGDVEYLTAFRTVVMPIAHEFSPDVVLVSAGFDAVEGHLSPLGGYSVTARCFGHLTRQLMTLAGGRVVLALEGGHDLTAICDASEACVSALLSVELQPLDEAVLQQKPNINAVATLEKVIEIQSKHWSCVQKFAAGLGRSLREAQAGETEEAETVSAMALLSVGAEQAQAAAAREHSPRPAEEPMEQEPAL

[3] = system: Catechol-O-Methyl Transferase (COMT); experiment: Catechol-O-Methyl Transferase (COMT); type: biochemical, Porcine; conditions: 10 μM; assay year 2015
Protocol: The in vitro pharmacological studies were conducted by Eurofins PanLab (Taiwan) using the parameters shown in Table 13 with respect to appropriate literature references.

PHF8(h) = PHF8(h) (Homo sapiens, UniProt Q9UPP1); experiment: Epigenetic enzyme assay, Demethylases (KDMs); type: biochemical; conditions: read-out: % Inhibition of Control Values
CREBBP(h) = CREBBP(h) (Homo sapiens, UniProt Q92793); experiment: Epigenetic enzyme assay, Histone acetyltransferases (HATs); type: biochemical; conditions: 10 μM; read-out: % Inhibition of Control Values
Sirtuin 7 (h) = target: T2, Sirtuin 7 (h) (Homo sapiens, UniProt Q9NRC8); experiment: Epigenetic enzyme assay, Sirtuins; type: biochemical; conditions: 10 μM; read-out: % Inhibition of Control Values
T2 sequence (Q9NRC8 1-400): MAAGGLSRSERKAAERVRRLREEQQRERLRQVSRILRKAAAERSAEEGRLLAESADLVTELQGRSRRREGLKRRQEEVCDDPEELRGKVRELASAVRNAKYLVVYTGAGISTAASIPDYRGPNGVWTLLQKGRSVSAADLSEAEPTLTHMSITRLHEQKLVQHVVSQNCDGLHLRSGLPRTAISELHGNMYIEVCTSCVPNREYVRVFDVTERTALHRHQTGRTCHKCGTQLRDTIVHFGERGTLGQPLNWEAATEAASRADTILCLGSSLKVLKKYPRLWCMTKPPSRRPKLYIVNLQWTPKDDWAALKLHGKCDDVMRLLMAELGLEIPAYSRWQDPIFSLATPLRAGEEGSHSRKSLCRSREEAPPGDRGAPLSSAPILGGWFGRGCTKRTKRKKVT

USP 21 (h) = target: T3, USP 21 (h) (Homo sapiens, UniProt Q9UK80); experiment: Epigenetic enzyme assay, Ubiquitin modifying enzymes; type: biochemical; conditions: 10 μM; read-out: % Inhibition of Control Values
T3 sequence (Q9UK80 1-565): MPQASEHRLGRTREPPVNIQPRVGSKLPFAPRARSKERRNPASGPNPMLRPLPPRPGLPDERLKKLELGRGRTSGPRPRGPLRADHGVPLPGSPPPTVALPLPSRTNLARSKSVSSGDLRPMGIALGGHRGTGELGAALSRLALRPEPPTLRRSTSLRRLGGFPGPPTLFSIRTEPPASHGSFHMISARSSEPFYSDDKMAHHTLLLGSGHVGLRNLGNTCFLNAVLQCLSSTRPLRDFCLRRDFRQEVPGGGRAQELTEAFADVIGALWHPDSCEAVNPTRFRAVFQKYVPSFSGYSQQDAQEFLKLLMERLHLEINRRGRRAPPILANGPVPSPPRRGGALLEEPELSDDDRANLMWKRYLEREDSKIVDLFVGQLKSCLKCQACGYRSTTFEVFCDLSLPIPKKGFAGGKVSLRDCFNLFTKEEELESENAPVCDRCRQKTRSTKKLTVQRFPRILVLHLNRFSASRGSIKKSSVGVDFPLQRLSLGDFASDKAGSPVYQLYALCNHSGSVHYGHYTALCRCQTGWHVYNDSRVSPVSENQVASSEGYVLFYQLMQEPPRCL

GCN5L2(h) = GCN5L2(h) (Homo sapiens, UniProt Q92830); experiment: Epigenetic enzyme assay, Histone acetyltransferases (HATs); type: biochemical; conditions: 10 μM; read-out: % Inhibition of Control Values
SETDB1 (h) = SETDB1 (h) (Homo sapiens, UniProt Q15047); experiment: Epigenetic enzyme assay, Methyltransferases (MTs); type: biochemical
NSD1 (h) = NSD1 (h) (Homo sapiens, UniProt Q96L73); experiment: Epigenetic enzyme assay, Methyltransferases (MTs); type: biochemical; conditions: 10 μM; read-out: % Inhibition of Control Values
Chain of NSD1 (h) (Q96L73 whole entry): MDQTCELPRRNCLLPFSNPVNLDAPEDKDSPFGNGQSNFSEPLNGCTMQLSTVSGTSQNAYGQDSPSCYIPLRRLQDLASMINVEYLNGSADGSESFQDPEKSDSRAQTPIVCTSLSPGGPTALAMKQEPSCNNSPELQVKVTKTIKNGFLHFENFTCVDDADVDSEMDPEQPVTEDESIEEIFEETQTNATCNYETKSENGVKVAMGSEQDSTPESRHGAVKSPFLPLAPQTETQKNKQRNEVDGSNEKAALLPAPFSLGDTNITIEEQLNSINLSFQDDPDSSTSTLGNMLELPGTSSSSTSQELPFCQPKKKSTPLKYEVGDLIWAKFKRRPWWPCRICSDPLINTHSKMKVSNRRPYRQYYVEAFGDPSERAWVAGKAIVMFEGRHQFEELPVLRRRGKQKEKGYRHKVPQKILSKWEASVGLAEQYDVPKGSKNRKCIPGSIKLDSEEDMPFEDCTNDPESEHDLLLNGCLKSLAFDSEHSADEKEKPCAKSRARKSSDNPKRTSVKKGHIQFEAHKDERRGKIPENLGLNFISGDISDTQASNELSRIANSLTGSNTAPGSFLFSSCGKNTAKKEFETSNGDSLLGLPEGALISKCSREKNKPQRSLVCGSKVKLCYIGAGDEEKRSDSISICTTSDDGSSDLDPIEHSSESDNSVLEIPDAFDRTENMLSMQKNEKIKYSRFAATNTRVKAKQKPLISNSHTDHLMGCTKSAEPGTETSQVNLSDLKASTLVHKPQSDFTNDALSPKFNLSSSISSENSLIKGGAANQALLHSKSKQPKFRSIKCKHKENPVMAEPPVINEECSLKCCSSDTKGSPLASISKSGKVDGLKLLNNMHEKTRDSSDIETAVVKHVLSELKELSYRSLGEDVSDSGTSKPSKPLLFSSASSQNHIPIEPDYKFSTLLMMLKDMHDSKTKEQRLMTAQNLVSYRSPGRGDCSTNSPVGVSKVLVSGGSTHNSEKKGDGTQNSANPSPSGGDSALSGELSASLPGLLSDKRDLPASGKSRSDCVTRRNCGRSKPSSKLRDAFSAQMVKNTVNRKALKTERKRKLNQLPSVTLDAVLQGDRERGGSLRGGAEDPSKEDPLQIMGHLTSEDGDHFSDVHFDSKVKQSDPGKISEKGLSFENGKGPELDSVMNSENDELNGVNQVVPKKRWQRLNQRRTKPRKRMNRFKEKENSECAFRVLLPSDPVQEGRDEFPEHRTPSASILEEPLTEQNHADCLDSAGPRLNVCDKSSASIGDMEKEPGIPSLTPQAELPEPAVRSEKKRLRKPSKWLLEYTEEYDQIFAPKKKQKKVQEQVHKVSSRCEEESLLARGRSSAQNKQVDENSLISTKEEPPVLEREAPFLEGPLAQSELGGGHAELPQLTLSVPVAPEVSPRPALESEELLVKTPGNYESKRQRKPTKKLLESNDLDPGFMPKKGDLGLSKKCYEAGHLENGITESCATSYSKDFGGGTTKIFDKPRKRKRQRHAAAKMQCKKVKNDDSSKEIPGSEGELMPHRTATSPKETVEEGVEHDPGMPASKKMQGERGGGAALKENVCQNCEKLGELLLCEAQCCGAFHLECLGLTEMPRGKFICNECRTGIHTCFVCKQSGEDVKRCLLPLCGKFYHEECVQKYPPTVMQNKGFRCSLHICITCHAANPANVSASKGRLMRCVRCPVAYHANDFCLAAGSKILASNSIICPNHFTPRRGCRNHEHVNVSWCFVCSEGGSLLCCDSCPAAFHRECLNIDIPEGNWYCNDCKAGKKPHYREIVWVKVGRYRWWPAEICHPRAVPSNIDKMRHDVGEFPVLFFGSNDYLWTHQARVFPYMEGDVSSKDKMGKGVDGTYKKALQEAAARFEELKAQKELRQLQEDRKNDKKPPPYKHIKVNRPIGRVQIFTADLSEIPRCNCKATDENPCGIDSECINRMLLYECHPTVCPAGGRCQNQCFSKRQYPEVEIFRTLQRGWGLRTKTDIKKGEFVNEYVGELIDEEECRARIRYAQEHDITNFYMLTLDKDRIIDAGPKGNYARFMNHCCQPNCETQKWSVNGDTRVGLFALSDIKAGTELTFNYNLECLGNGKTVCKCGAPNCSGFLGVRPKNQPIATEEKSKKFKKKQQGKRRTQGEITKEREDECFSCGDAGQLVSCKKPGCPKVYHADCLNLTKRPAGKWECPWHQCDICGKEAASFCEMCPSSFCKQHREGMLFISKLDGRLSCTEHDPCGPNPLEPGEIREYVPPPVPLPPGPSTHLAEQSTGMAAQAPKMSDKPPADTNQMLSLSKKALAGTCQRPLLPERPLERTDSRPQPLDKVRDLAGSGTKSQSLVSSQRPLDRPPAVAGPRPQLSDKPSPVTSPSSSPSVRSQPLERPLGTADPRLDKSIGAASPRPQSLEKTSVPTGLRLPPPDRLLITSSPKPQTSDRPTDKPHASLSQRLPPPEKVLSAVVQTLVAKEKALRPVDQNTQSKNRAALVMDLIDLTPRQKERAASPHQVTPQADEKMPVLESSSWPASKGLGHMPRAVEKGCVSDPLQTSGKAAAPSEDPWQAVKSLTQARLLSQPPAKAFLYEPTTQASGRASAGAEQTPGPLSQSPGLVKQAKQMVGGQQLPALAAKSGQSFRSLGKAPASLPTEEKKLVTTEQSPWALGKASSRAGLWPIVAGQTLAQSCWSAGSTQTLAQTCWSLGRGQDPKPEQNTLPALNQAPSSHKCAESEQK

[4] = target: Aurora B (h) (substrate histone H3 full length) (Homo sapiens, UniProt Q96GD4); experiment: Epigenetic enzyme assay, Kinases; type: biochemical; conditions: read-out: % Inhibition of Control Values
Chain of Aurora B (h) (substrate histone H3 full length) (Q96GD4 whole entry): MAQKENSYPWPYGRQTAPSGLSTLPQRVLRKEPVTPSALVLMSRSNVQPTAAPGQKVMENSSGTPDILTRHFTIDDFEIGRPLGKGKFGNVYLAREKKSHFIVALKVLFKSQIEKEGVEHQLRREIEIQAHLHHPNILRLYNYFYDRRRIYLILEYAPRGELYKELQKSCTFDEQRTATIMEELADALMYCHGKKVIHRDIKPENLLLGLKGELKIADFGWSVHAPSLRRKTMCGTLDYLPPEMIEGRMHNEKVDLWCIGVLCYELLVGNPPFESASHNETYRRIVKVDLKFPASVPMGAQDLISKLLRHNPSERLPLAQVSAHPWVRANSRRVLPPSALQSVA

[5] = LL/2 (Non-Small Cell Lung Cancer)
[6] = NCI-H460 (Non-Small Cell Lung Cancer)
[7] = PC-6 (Non-Small Cell Lung Cancer)

Structure (SMILES): CC(C)=CCC[C@H](C)[C@@H]1CC[C@@H](C)c2c1cc(C)c(O)c2O [Compound 4, 7,8-dihydroxyserrulat-14-ene]
- reduction in cell viability ([1]; Ramos, H33HJ-JA1, HL-60 (TB), MOLT-4, MV-411, SK-N-MC): −82 to −94%
- % Cell growth ([1]; 4T1 (Breast Cancer)): 26%
- % Cell growth ([1]; A375 (Skin)): 65%
- % Cell growth ([1]; A549/ATCC (Non-Small Cell Lung Cancer)): 93%
- % Cell growth ([1]; A-431 (Skin)): 107%
- % Cell growth ([1]; A-498 (Kidney Cancer)): 89%
- % Cell growth ([1]; ACHN (Kidney Cancer)): 105%
- % Cell growth ([1]; B16-F0 (Melanoma)): 56%
- % Cell growth ([1]; BT474 (Breast Cancer)): 64%
- % Cell growth ([1]; CT26.WT (Colon Cancer)): 33%
- % Cell growth ([1]; DLD-1 (Colon Cancer)): 68%
- % Cell growth ([1]; H33HJ-JA1 (Lymphoma)): −87%
- % Cell growth ([1]; HC-4 (Liver Cancer)): 91%
- % Cell growth ([1]; HCT-15 (Colon Cancer)): 69%
- % Cell growth ([1]; HCT-116 (Colon Cancer)): 64%
- % Cell growth ([1]; HT-29 (Colon Cancer)): 91%
- % Cell growth ([1]; Hep3B (Liver Cancer)): 93%
- % Cell growth ([1]; HepG2 (Liver Cancer)): 90%
- % Cell growth ([1]; K-562 (Leukemia)): 60%
- % Cell growth ([1]; KATO III (Stomach)): 83%
- % Cell growth [1, 5]: 98%
- % Cell growth ([1]; LNCaP (Prostrate Cancer)): 56%
- % Cell growth ([1]; MCF7 (Breast Cancer)): 77%
- % Cell growth ([1]; MCF-7 AdrR (Breast Cancer)): 77%
- % Cell growth ([1]; MDA-MB-231 (Breast Cancer)): 84%
- % Cell growth ([1]; MDA-MB-468 (Breast Cancer)): 52%
- % Cell growth ([1]; MES-SA (Uterus)): 68%
- % Cell growth ([1]; MIA PaCa-2 (Pancreas)): 92%
- % Cell growth ([1]; MOLT-4 (Leukemia)): −93%
- % Cell growth ([1]; MV-411 (Leukemia)): −94%
- % Cell growth [1, 6]: 93%
- % Cell growth ([1]; OVCAR-3 (Ovarian Cancer)): 60%
- % Cell growth ([1]; PANC-1 (Pancreas)): 82%
- % Cell growth [1, 7]: 4%
- % Cell growth ([1]; Ramos (Lymphoma)): −82%
- % Cell growth ([1]; SK-MEL-5 (Melanoma)): 88%
- % Cell growth ([1]; SK-N-MC (Brain)): −92%
- % Cell growth ([1]; SK-OV-3 (Ovarian Cancer)): 74%
- % Cell growth ([1]; SW-620 (Colon Cancer)): 74%
- % Cell growth ([1]; T-47D (Breast Cancer)): 47%
- % Cell growth ([1]; U937 (Lymphoma)): 20%
- % Cell growth ([1]; U-87 MG (Brain)): 81%
- inhibition at 1 µM (CYP2C9; 1 μM): 31%
- inhibition at 10 µM (CYP2C9; read-out: % Inhibition of Control Values): 91%

Structure (SMILES): CC(C)=CCC[C@@H]1COc2c(C)cc(O)c3c2[C@H]1CC[C@H]3C [Compound 3, 5,18-epoxy-8-hydroxyserrulat-14-ene]
- inhibition at 10 µM [2]: 12%
- inhibition at 10 µM (HDAC5 (h)): -1%
- % Control Response [3]: 3%
- inhibition at 10 µM (PHF8(h)): 13%
- inhibition at 10 µM (CREBBP(h)): 43%
- inhibition at 10 µM (Sirtuin 7 (h)): -8%
- effect on cell viability ([1]; all 44 cell lines): no significant effect
- % Cell growth ([1]; 4T1 (Breast Cancer)): 99%
- % Cell growth ([1]; A375 (Skin)): 100%
- % Cell growth ([1]; A-431 (Skin)): 102%
- % Cell growth ([1]; A-498 (Kidney Cancer)): 92%
- % Cell growth ([1]; ACHN (Kidney Cancer)): 105%
- % Cell growth ([1]; B16-F0 (Melanoma)): 116%
- % Cell growth ([1]; BT474 (Breast Cancer)): 108%
- % Cell growth ([1]; CT26.WT (Colon Cancer)): 103%
- % Cell growth ([1]; DLD-1 (Colon Cancer)): 101%
- % Cell growth ([1]; H33HJ-JA1 (Lymphoma)): 90%
- % Cell growth ([1]; HC-4 (Liver Cancer)): 105%
- % Cell growth ([1]; HCT-15 (Colon Cancer)): 116%
- % Cell growth ([1]; HCT-116 (Colon Cancer)): 99%
- % Cell growth ([1]; HT-29 (Colon Cancer)): 101%
- % Cell growth ([1]; Hep3B (Liver Cancer)): 84%
- % Cell growth ([1]; HepG2 (Liver Cancer)): 103%
- % Cell growth ([1]; K-562 (Leukemia)): 93%
- % Cell growth ([1]; KATO III (Stomach)): 105%
- % Cell growth [1, 5]: 111%
- % Cell growth ([1]; LNCaP (Prostrate Cancer)): 84%
- % Cell growth ([1]; MCF7 (Breast Cancer)): 112%
- % Cell growth ([1]; MCF-7 AdrR (Breast Cancer)): 101%
- % Cell growth ([1]; MDA-MB-231 (Breast Cancer)): 100%
- % Cell growth ([1]; MDA-MB-468 (Breast Cancer)): 85%
- % Cell growth ([1]; MES-SA (Uterus)): 94%
- % Cell growth ([1]; MIA PaCa-2 (Pancreas)): 106%
- % Cell growth ([1]; MOLT-4 (Leukemia)): 77%
- % Cell growth ([1]; MV-411 (Leukemia)): 76%
- % Cell growth [1, 6]: 100%
- % Cell growth ([1]; OVCAR-3 (Ovarian Cancer)): 86%
- % Cell growth ([1]; PANC-1 (Pancreas)): 116%
- % Cell growth ([1]; PC-3 (Prostrate Cancer)): 64%
- % Cell growth [1, 7]: 96%
- % Cell growth ([1]; Ramos (Lymphoma)): 129%
- % Cell growth ([1]; SK-MEL-5 (Melanoma)): 118%
- % Cell growth ([1]; SK-N-MC (Brain)): 82%
- % Cell growth ([1]; SK-OV-3 (Ovarian Cancer)): 98%
- % Cell growth ([1]; SW-620 (Colon Cancer)): 107%
- % Cell growth ([1]; T-47D (Breast Cancer)): 119%
- % Cell growth ([1]; U937 (Lymphoma)): 105%
- % Cell growth ([1]; U-87 MG (Brain)): 111%
- inhibition at 10 µM (USP 21 (h)): 3%
- inhibition at 10 µM (GCN5L2(h)): 1%
- inhibition at 10 µM (SETDB1 (h); 10 μM, read-out: % Inhibition of Control Values): 52%
- inhibition at 10 µM (NSD1 (h)): -10%
- inhibition at 10 µM [4]: -1%

Structure (SMILES): Nc1ncnc2c1ncn2[C@@H]1O[C@H](CSCC[C@H](N)C(=O)O)[C@@H](O)[C@H]1O [SAH]
- IC50 (SETDB1 (h); read-out: Reference IC50): 1800 nM
